Consider five compounds from patent US11897898B2, “Pyridine macrocycle compounds as ASK1 inhibiting agents” (BIOGEN MA INC., priority 2018, dated 2024).

SMILES strings stand for the structures. Bounds are passed on as bounds.

A short description of the data set: In vivo brain penetration (rat Kpuu study). The note with it: brain and plasma (unbound), IV infusion in the carotid artery for four hours, 1 mg/kg, steady state, Kpuu=Cu,b/Cu,p. As to the method:
To evaluate the CNS penetration of the compounds described herein, several compounds were selected for in vivo rat Kpuu studies. In these experiments the compounds are administered via an IV infusion (using N,N-dimethylacetamide:ethanol:1,2-propylene glycol:water in a 1:1:3:5 ratio as the vehicle) in the carotid artery for a period of four hours (1 mg/kg, 0.1 mg/mL) to reach steady state. After this time the plasma and brain concentration levels are quantified, and the values are adjusted by the measured protein binding in plasma and brain homogenate to calculate the Kpuu (see Di, L.; Kerns, E. H. Blood-Brain Barrier in Drug Discovery (Wiley)) according to the equation below. Kpuu=Cu,b/Cu,p • Wherein: • Cu,b=Unbound concentration in brain (C×fu,b). (C=concentration at steady state; fu,b=fraction unbound in brain) • And in which: Cu,p=Unbound concentration in plasma (C×fu,p). (C=concentration at steady state; fu,p=fraction unbound in plasma)
Plasma and brain protein binding values were generated via the Rapid Equilibrium Dialysis method. The compound of interest was incubated in K2EDTA plasma and brain homogenate (homogenized 1:7 (w:v) in 1×PBS) purchased from BioIVT (Westbury, N.Y.), opposite a buffered compartment of 100 mM Potassium phosphate/150 mM Sodium chloride, pH 7.4, at 1 μM for 4 hr and 6 hr respectively. At the conclusion of incubation samples were taken from both matrix and buffered compartments, matrix-matched using blank buffer and matrix, extracted with acetonitrile, diluted with water, and analyzed utilizing an Agilent RapidFire 365 high-throughput LC coupled with MS/MS detection via an AB Sciex 5500. Free fractions (fu) were then calculated by comparing internal standard/analyte peak-area ratios of matrix and buffered compartments. Cross-species brain protein binding was considered to be equivalent for the purposes of calculating free fraction (see Di, L., et al., (2011a) Species Independence in Brain Tissue Binding Using Brain Homogenates, Drug Metab Dispos 39:1270-1277).
Total drug concentration in plasma and brain tissue was measured via well-established bioanalytical extraction (protein precipitation) and detection methods (LC-MS/MS). Brain tissues were homogenized 1:4 (w:v) with 1×PBS in MP Biomedicals Lysing Matrix D tubes via an MP Biomedicals FastPrep-24™ homogenizer and were then extracted alongside plasma samples by matrix-matching with blank K2EDTA plasma (purchased from BioIVT), followed by protein crash/extraction with acetonitrile, supernatant dry down under nitrogen, and reconstitution with an acidified aqueous/organic mixture before being measured against a calibration curve of the compound of interest prepared in plasma, matrix-matched with blank brain homogenate (generated with brains purchased from BioIVT), and similarly extracted. Reconstituted extracts were then analyzed via LC-MS/MS (AB Sciex 5500) utilizing a binary HPLC setup (Shimadzu LC-20ADvp) and reverse-phase chromatography gradient (ACE 3 C18-AR). Peak area ratios and a 1/x^2 regression fit were used to generate sample concentration values that, combined with plasma and brain protein binding values, were used to generate free drug concentration values and partitioning coefficient (Kpuu).
`C[C@H]1CCCOc2ncc(Br)cc2C(=O)Nc2cccc(n2)-c2nncn21` (single isomer, unassigned) [Compound 1] returned a Kp uu at 4 h of at least 0.1. The same measure for `C[C@H]1CCCOc2ncc(C(F)(F)F)cc2C(=O)Nc2cccc(n2)-c2nncn21` (single isomer, unassigned) [Compound 41]: at least 0.1. The figure for `C[C@H]1CCCOc2ncccc2C(=O)Nc2cccc(n2)-c2nncn21` (single isomer, unassigned) [Compound 4] is at least 0.1; for `C[C@H]1CCCOc2ncc(C#N)cc2C(=O)Nc2cccc(n2)-c2nncn21` [Compound 38, (S)-10-Methyl-4-oxo-1^4H-6-oxa-3-aza-2(2,6),5(3,2)-dipyridina-1(3,4)-triazolacyclodecaphane-5^5-carbonitrile] it is below 0.1. The same measure for `C[C@H]1CCCOc2ncc(-c3ccncc3)cc2C(=O)Nc2cccc(n2)-c2nncn21` [Compound 17, (S)-10-Methyl-5^5-(pyridin-4-yl)-1^4H-6-oxa-3-aza-2(2,6),5(3,2)-dipyridina-1(3,4)-triazolacyclodecaphan-4-one]: at least 0.1.
